Assay results as given in PubChem BioAssay AID248 (DTP/NCI, 2004).
Values joined by “and” are separate entries in the source; they are usually repeats but may differ in a detail not shown here. Equal values may be shown once. Inconclusive results and toxic doses are left out. Rule as the data show it: active = T/C of 150% or more; inactive = T/C below 125%.

Test system: L1210 leukemia ip in BDF1 mice, survival T/C
Test: NCI In Vivo Anticancer Drug Screen. Data for tumor model L1210 Leukemia (intraperitoneal) in B6D2F1 (BDF1) mice
Settings: endpoint: mean survival time, higher = longer survival
In short: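 Survival endpoint. Drug-treated group vs vehicle group, expressed as T divided by C. Tumor passaged by transplantation.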

[1] = dose: 100.0 mg/kg/injection, schedule: Q01DX001 (ip), vehicle: Klucel (hydroxypropylcellulose) (HPC)
[2] = dose: 200.0 mg/kg/injection, schedule: Q01DX001 (ip), vehicle: Klucel (hydroxypropylcellulose) (HPC)
[3] = dose: 400.0 mg/kg/injection, schedule: Q01DX001 (ip), vehicle: Klucel (hydroxypropylcellulose) (HPC)
[4] = dose: 100.0 mg/kg/injection, schedule: Q01DX001 (ip), vehicle: saline
[5] = dose: 200.0 mg/kg/injection, schedule: Q01DX001 (ip), vehicle: saline
[6] = dose: 400.0 mg/kg/injection, schedule: Q01DX001 (ip), vehicle: saline
[7] = dose: 6.25 mg/kg/injection, schedule: Q01DX009 (ip), vehicle: saline
[8] = dose: 12.5 mg/kg/injection, schedule: Q01DX009 (ip), vehicle: saline
[9] = dose: 25.0 mg/kg/injection, schedule: Q01DX009 (ip), vehicle: saline
[10] = dose: 100.0 mg/kg/injection, schedule: Q04DX003 (ip), vehicle: Klucel (hydroxypropylcellulose) (HPC)
[11] = dose: 100.0 mg/kg/injection, schedule: Q04DX003 (ip), vehicle: saline
[12] = dose: 200.0 mg/kg/injection, schedule: Q04DX003 (ip), vehicle: Klucel (hydroxypropylcellulose) (HPC)
[13] = dose: 200.0 mg/kg/injection, schedule: Q04DX003 (ip), vehicle: saline
[14] = dose: 400.0 mg/kg/injection, schedule: Q04DX003 (ip), vehicle: Klucel (hydroxypropylcellulose) (HPC)
[15] = dose: 400.0 mg/kg/injection, schedule: Q04DX003 (ip), vehicle: saline
[16] = dose: 100.0 mg/kg/injection, schedule: Q04DX002 (ip), vehicle: Klucel (hydroxypropylcellulose) (HPC)
[17] = dose: 100.0 mg/kg/injection, schedule: Q01DX009 (ip), vehicle: Klucel (hydroxypropylcellulose) (HPC)
[18] = dose: 200.0 mg/kg/injection, schedule: Q01DX009 (ip), vehicle: Klucel (hydroxypropylcellulose) (HPC)
[19] = dose: 400.0 mg/kg/injection, schedule: Q01DX009 (ip), vehicle: Klucel (hydroxypropylcellulose) (HPC)
[20] = dose: 100.0 mg/kg/injection, schedule: Q01DX009 (ip), vehicle: saline
[21] = dose: 200.0 mg/kg/injection, schedule: Q01DX009 (ip), vehicle: saline
[22] = dose: 50.0 mg/kg/injection, schedule: Q01DX009 (ip), vehicle: saline
[23] = dose: 400.0 mg/kg/injection, schedule: Q01DX009 (ip), vehicle: saline
[24] = dose: 50.0 mg/kg/injection, schedule: Q01DX001 (ip), vehicle: carboxymethylcellulose (CMC)
[25] = dose: 100.0 mg/kg/injection, schedule: Q01DX001 (ip), vehicle: carboxymethylcellulose (CMC)
[26] = dose: 200.0 mg/kg/injection, schedule: Q01DX001 (ip), vehicle: carboxymethylcellulose (CMC)
[27] = dose: 400.0 mg/kg/injection, schedule: Q01DX001 (ip), vehicle: carboxymethylcellulose (CMC)

Measured: T/C

CC(=O)Nc1nc2oc(C)nc2c(=O)[nH]1
inactive: [1] 104 % of control | [2] 97 % of control | [3] 103 % of control

CC(=O)NCC(N)=S
inactive: [4] 102 % of control | [5] 102 % of control | [6] 98 % of control

O=C1C(Br)CS(=O)(=O)CC1Br (centres undefined)
inactive: [7] 96 % of control | dose: 8.75 mg/kg/injection, schedule: Q01DX009 (ip), vehicle: saline 106 % of control | [8] 86 % of control | dose: 12.5 mg/kg/injection, schedule: Q04DX003 (ip), vehicle: Klucel (hydroxypropylcellulose) (HPC) 96 % of control | dose: 15.0 mg/kg/injection, schedule: Q01DX001 (ip), vehicle: carboxymethylcellulose (CMC) 102 % of control | dose: 17.5 mg/kg/injection, schedule: Q01DX009 (ip), vehicle: saline 98 % of control | [9] 91 % of control | dose: 25.0 mg/kg/injection, schedule: Q04DX003 (ip), vehicle: Klucel (hydroxypropylcellulose) (HPC) 94 % of control | dose: 30.0 mg/kg/injection, schedule: Q01DX001 (ip), vehicle: carboxymethylcellulose (CMC) 106 % of control

Oc1ccccc1C=Nc1ccccc1O.[Cu+2]
inactive: dose: 100.0 mg/kg/injection, schedule: Q01DX001 (ip), vehicle: other 107 % of control | dose: 200.0 mg/kg/injection, schedule: Q01DX001 (ip), vehicle: other 116 % of control

CCOC(=O)c1cnc(SC)nc1OCC
inactive: dose: 12.0 mg/kg/injection, schedule: Q01DX001 (ip), vehicle: Klucel (hydroxypropylcellulose) (HPC) 93 % of control | dose: 25.0 mg/kg/injection, schedule: Q01DX001 (ip), vehicle: Klucel (hydroxypropylcellulose) (HPC) 104 % of control

OC(CF)CCl (centres undefined)
inactive: [7] 89 % of control | [8] 96 % of control | [9] 103 % of control

CN(C)/N=C\c1ccc(C(=O)O)cc1
inactive: dose: 50.0 mg/kg/injection, schedule: Q04DX003 (ip), vehicle: Klucel (hydroxypropylcellulose) (HPC) 92 % of control | dose: 50.0 mg/kg/injection, schedule: Q04DX003 (ip), vehicle: saline 114 % of control | [10] 88 % of control | [11] 109 % of control | [12] 95 % of control | [13] 114 % of control | [14] 93 % of control | [15] 100 % of control

CCCCC(=O)N1CCCC(C)C1 (centres undefined)
inactive: [16] 105 % of control

CCCCCCCCCCCCCCCCCC(=O)[O][Sn]([CH2]CCC)([CH2]CCC)[O]C(=O)CCCCCCCCCCCCCCCCC
inactive: dose: 6.25 mg/kg/injection, schedule: Q04DX003 (ip), vehicle: other 100 % of control | dose: 12.5 mg/kg/injection, schedule: Q04DX003 (ip), vehicle: other 114 % of control | dose: 25.0 mg/kg/injection, schedule: Q04DX003 (ip), vehicle: other 101 % of control | dose: 50.0 mg/kg/injection, schedule: Q04DX003 (ip), vehicle: other 101 % of control

N#CCN(CC#N)CCN(CC#N)CC#N
inactive: [17] 95 % of control | [10] 103 % of control | [18] 92 % of control | [12] 90 % of control | [19] 93 % of control | [14] 105 % of control

O=NN(CC(=O)O)C(c1ccccc1)(c1ccccc1)c1ccccc1Cl
inactive: [10] 95 % of control | [12] 93 % of control

CC1C[N-]CC(C)C1.CC1C[N-]CC(C)C1.CC1C[N-]CC(C)C1.CC1C[N-]CC(C)C1.[Cl][Rh][Cl] (centres undefined)
inactive: dose: 1.5 mg/kg/injection, schedule: Q01DX009 (ip), vehicle: gum acacia 98 % of control | dose: 3.0 mg/kg/injection, schedule: Q01DX009 (ip), vehicle: gum acacia 96 % of control | dose: 6.0 mg/kg/injection, schedule: Q01DX009 (ip), vehicle: gum acacia 100 % of control | dose: 12.5 mg/kg/injection, schedule: Q04DX003 (ip), vehicle: gum acacia 100 % of control | dose: 25.0 mg/kg/injection, schedule: Q04DX003 (ip), vehicle: gum acacia 93 % of control

NC(=O)c1ccc(C(F)(F)F)cc1O
inactive: [17] 95 % of control | [10] 100 % of control | [18] 95 % of control | [12] 97 % of control | [19] 95 % of control | [14] 95 % of control

CC/C(C)=N\NC(=O)c1cccnc1
inactive: [20] 110 % of control | [21] 110 % of control

CC1CCN(C(=S)[S-])CC1.CC1CCN(C(=S)[S-])CC1.[Zn]
inactive: [8] 111 % of control | [9] 107 % of control | [22] 100 % of control | [11] 103 % of control

O=C(N1C(c2ccc(Cl)cc2)CC2(CC1c1ccc(Cl)cc1)SSC1(CC(c3ccc(Cl)cc3)N(C(=O)C(F)(F)F)C(c3ccc(Cl)cc3)C1)S2)C(F)(F)F (centres undefined)
inactive: [20] 102 % of control | [11] 95 % of control | [21] 98 % of control | [13] 97 % of control | [23] 105 % of control | [15] 95 % of control

CNc1ccc(Cl)cc1C
inactive: dose: 100.0 mg/kg/injection, schedule: Q04DX002 (sc), vehicle: olive oil, sesame oil, peanut oil 103 % of control | dose: 200.0 mg/kg/injection, schedule: Q04DX002 (sc), vehicle: olive oil, sesame oil, peanut oil 110 % of control | dose: 400.0 mg/kg/injection, schedule: Q04DX002 (sc), vehicle: olive oil, sesame oil, peanut oil 100 % of control

O=C(O)C1CC(Br)C(Br)CC1C(=O)Nc1ccc(Cl)c(Cl)c1 (centres undefined)
inactive: [16] 115 % of control | dose: 200.0 mg/kg/injection, schedule: Q04DX002 (ip), vehicle: Klucel (hydroxypropylcellulose) (HPC) 121 % of control

COc1cc([N+](=O)[O-])c(C)cc1NCc1ccc(OC)c(OC)c1
inactive: [22] 96 % of control | [20] 94 % of control | [11] 97 % of control | [21] 91 % of control | [13] 98 % of control | [23] 94 % of control | [15] 89 % of control

CCOC(=O)C1=CC2(c3ccccc3)CC1(c1ccccc1)C(c1ccccc1)=C2c1ccccc1 (centres undefined)
inactive: [24] 97 % of control | [25] 92 % of control | [26] 94 % of control | [27] 89 % of control

O=[N+]([O-])c1c(-c2ccccc2)no[n+]1[O-]
inactive: dose: 40.0 mg/kg/injection, schedule: Q04DX003 (ip), vehicle: Klucel (hydroxypropylcellulose) (HPC) 91 % of control | dose: 80.0 mg/kg/injection, schedule: Q04DX003 (ip), vehicle: Klucel (hydroxypropylcellulose) (HPC) 96 % of control

O=C(OC1CC2CC1C1C=CCC21)c1ccc([N+](=O)[O-])cc1 (centres undefined)
inactive: dose: 44.0 mg/kg/injection, schedule: Q01DX001 (ip), vehicle: carboxymethylcellulose (CMC) 94 % of control and 97 % of control | [24] 102 % of control | dose: 67.0 mg/kg/injection, schedule: Q01DX001 (ip), vehicle: carboxymethylcellulose (CMC) 94 % of control and 100 % of control | [1] 104 % of control | [25] 94 % of control and 100 % of control | [17] 101 % of control | dose: 150.0 mg/kg/injection, schedule: Q01DX001 (ip), vehicle: carboxymethylcellulose (CMC) 86 % of control and 91 % of control | [2] 93 % of control | [26] 90 % of control | [18] 104 % of control | [3] 104 % of control | [27] 96 % of control | [19] 101 % of control

CC(C)(C)OC(=O)NN1Cc2ccccc2Cc2ccccc2C1
inactive: [25] 96 % of control | [26] 91 % of control | [27] 96 % of control

CC(=O)C(c1ccc(N(C)C)cc1)c1ccc(N(C)C)cc1
inactive: dose: 50.0 mg/kg/injection, schedule: Q01DX001 (ip), vehicle: saline 101 % of control | [4] 101 % of control | [5] 101 % of control | [6] 101 % of control
